From patent publication US8445492B2, “Method for inhibiting growth of cancer cells and cell telomere and diseases of cell proliferation by using heteroannelated anthraquinone derivative compounds” (National Defense Medical Center, priority 2008, dated 2013)

Experiments:
Assay type in all cases: cell-based
SN12C [1] = test: NCI DTP in-vitro dose response, Renal Cancer
COLO 205 = test: NCI DTP in-vitro dose response, Colon Cancer
HS 578T = test: NCI DTP in-vitro dose response, Breast Cancer
KM12 = test: NCI DTP in-vitro dose response, Colon Cancer
SK-MEL-2 = test: NCI DTP in-vitro dose response, Melanoma
SNB-75 = test: NCI DTP in-vitro dose response, CNS Cancer
SR = test: NCI DTP in-vitro dose response, Leukemia
HCC-2998 = test: NCI DTP in-vitro dose response, Colon Cancer
TK-10 = test: NCI DTP in-vitro dose response, Renal Cancer
HT29 = test: NCI DTP in-vitro dose response, Colon Cancer
M14 = test: NCI DTP in-vitro dose response, Melanoma
A498 = test: NCI DTP in-vitro dose response, Renal Cancer
MDA-MB-435 = test: NCI DTP in-vitro dose response, Breast Cancer
SN12C [2] = test: in vitro test at 1.0×10^−5 M, Kidney cancer cell; settings: 1.0×10^−5 molal concentration (M)
SF-539 = test: in vitro test at 1.0×10^−5 M, CNS cancer cell; settings: 1.0×10^−5 molal concentration (M)
OVCAR-4 = test: in vitro test at 1.0×10^−5 M, Ovary cancer cell; settings: 1.0×10^−5 molal concentration (M)

O=C1c2ccccc2C(=O)c2c1ccc1nsnc21 [No. 22, Anthra[2,1-c][1,2,5]thiadiazole-6,11-dione]
GI50 (SN12C [1]; Homo sapiens, SN12C): 2.35 µM
CC50 (SN12C [1]; Homo sapiens, SN12C, read-out: LC50): > 100 µM
Percent Growth (SN12C [1]; Log10 Concentration −4.0): −35%
Percent Growth (SN12C [1]; Log10 Concentration −5.0): −7%
Percent Growth (SN12C [1]; Log10 Concentration −6.0): 83%
Percent Growth (SN12C [1]; Log10 Concentration −7.0): 103%
Percent Growth (SN12C [1]; Log10 Concentration −8.0): 91%
TGI (SN12C [1]; SN12C): 8.42E−6
TGI (COLO 205; COLO 205): 3.98E−6
GI50 (COLO 205; Homo sapiens, COLO 205): 1.97 µM
CC50 (COLO 205; Homo sapiens, COLO 205, read-out: LC50): 8.04 µM
Percent Growth (COLO 205; Log10 Concentration −4.0): −71%
Percent Growth (COLO 205; Log10 Concentration −5.0): −66%
Percent Growth (COLO 205; Log10 Concentration −6.0): 98%
Percent Growth (COLO 205; Log10 Concentration −7.0): 87%
Percent Growth (COLO 205; Log10 Concentration −8.0): 95%
TGI (HS 578T; HS 578T): >1.00E−4
GI50 (HS 578T; Homo sapiens, Hs-578T): 5.03 µM
CC50 (HS 578T; Homo sapiens, Hs-578T, read-out: LC50): > 100 µM
Percent Growth (HS 578T; Log10 Concentration −4.0): 21%
Percent Growth (HS 578T; Log10 Concentration −5.0): 29%
Percent Growth (HS 578T; Log10 Concentration −6.0): 100%
Percent Growth (HS 578T; Log10 Concentration −7.0): 114%
Percent Growth (HS 578T; Log10 Concentration −8.0): 109%
GI50 (KM12; Homo sapiens, KM12): 11.4 µM
CC50 (KM12; Homo sapiens, KM12, read-out: LC50): 94.8 µM
TGI (KM12; KM12): 3.28E−5
Percent Growth (KM12; Log10 Concentration −4.0): −53%
Percent Growth (KM12; Log10 Concentration −5.0): 56%
Percent Growth (KM12; Log10 Concentration −6.0): 103%
Percent Growth (KM12; Log10 Concentration −7.0): 108%
Percent Growth (KM12; Log10 Concentration −8.0): 107%
GI50 (SK-MEL-2; Homo sapiens, SK-MEL-2): 2.38 µM
CC50 (SK-MEL-2; Homo sapiens, SK-MEL-2, read-out: LC50): > 100 µM
Percent Growth (SK-MEL-2; Log10 Concentration −4.0): −32%
Percent Growth (SK-MEL-2; Log10 Concentration −5.0): −22%
Percent Growth (SK-MEL-2; Log10 Concentration −6.0): 94%
Percent Growth (SK-MEL-2; Log10 Concentration −7.0): 109%
Percent Growth (SK-MEL-2; Log10 Concentration −8.0): 110%
TGI (SK-MEL-2; SK-MEL-2): 6.42E−6
GI50 (SNB-75; Homo sapiens, SNB-75): 1.42 µM
CC50 (SNB-75; Homo sapiens, SNB-75, read-out: LC50): 5.22 µM
Percent Growth (SNB-75; Log10 Concentration −4.0): −100%
Percent Growth (SNB-75; Log10 Concentration −5.0): −100%
Percent Growth (SNB-75; Log10 Concentration −6.0): 77%
Percent Growth (SNB-75; Log10 Concentration −7.0): 66%
Percent Growth (SNB-75; Log10 Concentration −8.0): 76%
TGI (SNB-75; SNB-75): 2.73E−6
GI50 (SR; Homo sapiens, SR): 6.89 µM
CC50 (SR; Homo sapiens, SR, read-out: LC50): > 100 µM
Percent Growth (SR; Log10 Concentration −4.0): −22%
Percent Growth (SR; Log10 Concentration −5.0): 41%
Percent Growth (SR; Log10 Concentration −6.0): 99%
Percent Growth (SR; Log10 Concentration −7.0): 112%
Percent Growth (SR; Log10 Concentration −8.0): 108%
TGI (SR; SR): >1.00E−4
TGI (HCC-2998; HCC-2998): 4.20E−6
GI50 (HCC-2998; Homo sapiens, HCC 2998): 2.12 µM
CC50 (HCC-2998; Homo sapiens, HCC 2998, read-out: LC50): 8.32 µM
Percent Growth (HCC-2998; Log10 Concentration −4.0): −70%
Percent Growth (HCC-2998; Log10 Concentration −5.0): −63%
Percent Growth (HCC-2998; Log10 Concentration −6.0): 105%
Percent Growth (HCC-2998; Log10 Concentration −7.0): 103%
Percent Growth (HCC-2998; Log10 Concentration −8.0): 109%
GI50 (TK-10; Homo sapiens, TK-10): 34.9 µM
CC50 (TK-10; Homo sapiens, TK-10, read-out: LC50): > 100 µM
Percent Growth (TK-10; Log10 Concentration −4.0): −7%
Percent Growth (TK-10; Log10 Concentration −5.0): 118%
Percent Growth (TK-10; Log10 Concentration −6.0): 144%
Percent Growth (TK-10; Log10 Concentration −7.0): 133%
Percent Growth (TK-10; Log10 Concentration −8.0): 117%
TGI (TK-10; TK-10): 8.80E−5
TGI (HT29; HT29): 7.36E−6
GI50 (HT29; Homo sapiens, HT-29): 2.75 µM
CC50 (HT29; Homo sapiens, HT-29, read-out: LC50): 81 µM
Percent Growth (HT29; Log10 Concentration −4.0): −53%
Percent Growth (HT29; Log10 Concentration −5.0): −16%
Percent Growth (HT29; Log10 Concentration −6.0): 101%
Percent Growth (HT29; Log10 Concentration −7.0): 105%
Percent Growth (HT29; Log10 Concentration −8.0): 104%
GI50 (M14; Homo sapiens, M14): 2.44 µM
CC50 (M14; Homo sapiens, M14, read-out: LC50): > 100 µM
Percent Growth (M14; Log10 Concentration −4.0): −41%
Percent Growth (M14; Log10 Concentration −5.0): −32%
Percent Growth (M14; Log10 Concentration −6.0): 102%
Percent Growth (M14; Log10 Concentration −7.0): 100%
Percent Growth (M14; Log10 Concentration −8.0): 100%
TGI (M14; M14): 5.78E−6
TGI (A498; A498): >1.00E−4
GI50 (A498; Homo sapiens, A498): > 100 µM
CC50 (A498; Homo sapiens, A498, read-out: LC50): > 100 µM
Percent Growth (A498; Log10 Concentration −4.0): 84%
Percent Growth (A498; Log10 Concentration −5.0): 100%
Percent Growth (A498; Log10 Concentration −6.0): 96%
Percent Growth (A498; Log10 Concentration −7.0): 104%
Percent Growth (A498; Log10 Concentration −8.0): 105%
GI50 (MDA-MB-435; Homo sapiens, MDA-MB-435): 1.91 µM
CC50 (MDA-MB-435; Homo sapiens, MDA-MB-435, read-out: LC50): 87.8 µM
Percent Growth (MDA-MB-435; Log10 Concentration −4.0): −51%
Percent Growth (MDA-MB-435; Log10 Concentration −5.0): −32%
Percent Growth (MDA-MB-435; Log10 Concentration −6.0): 82%
Percent Growth (MDA-MB-435; Log10 Concentration −7.0): 102%
Percent Growth (MDA-MB-435; Log10 Concentration −8.0): 100%
TGI (MDA-MB-435; MDA-MB-435): 5.23E−6

CCc1nc2ccc3c(c2[nH]1)C(=O)c1ccccc1C3=O [No. 4, 2-Ethyl-1(3)H-anthra[1,2-d]imidazole-6,11-dione]
inhibition effect on cancer cell line (Table 2 value) (SN12C [2]): 68.53
inhibition effect on cancer cell line (Table 2 value) (SF-539): 83.16
inhibition effect on cancer cell line (Table 2 value) (OVCAR-4): 48.81
